{
  "source": "patent USRE38352E1",
  "about": "“Polymerase chain reaction assays for monitoring antiviral therapy and making therapeutic decisions in the treatment of acquired immunodeficiency syndrome” (priority 1992, dated 2003)",
  "key": {"plasma HIV RNA": {"test_system": "plasma HIV RNA", "experiment": "Plasma HIV RNA copy number by cDNA gene amplification (PCR) and enzyme-linked affinity assay", "type": "in vivo, human (HIV antibody-positive subjects)", "text": "After informed consent was obtained, whole blood samples were collected by venipuncture in the presence of acid-citrate-dextrose as an anticoagulant. A single plasma sample was collected from 39 HIV antibody-positive subjects who were not receiving antiretroviral therapy at the time of collection and from 33 HIV antibody-positive subjects who were currently on and had received AZT for a minimum of 3 mo.\nTwo plasma samples were collected from an additional 27 subjects before and 1 month after initiation of dideoxynucleoside therapy. 18 of these subjects received 500 mg/d of AZT orally. Seven subjects received a combination of zidovudine (150-600 mg/d) and 2′,3′-dideoxyinosine (ddI) (134-500 mg/d). Two patients received 500 mg/d of ddI alone (see Table I for individual subject characteristics). Finally, nine of these subjects had two plasma samples taken 1-3 wk. before initiating antiretroviral therapy and two plasma samples taken 1 and 2 mo. after commencing therapy. Plasma was separated within 4 h. by centrifugation at 500 g for 10 min. A second centrifugation was performed on the plasma at 500 g for 30 min. to remove any cellular material. 200 μl of plasma was then mixed with 200 μl of a solution containing 5M guanidinium thiocyanate, vortexed briefly, and stored at −70° C. until further use. All samples were assayed within 3 mo. of collection. To decrease variance, all specimens to be compared from the same subject were run in the same assay.\nRNA was extracted from plasma by the method described in Chomczynski et al., 1987, Ann. Biochem. 162:156-159. Briefly, 200 μl of clarified plasma to which 200 μl of 5M guanidinium thiocyanate had previously been added was extracted with phenol/chloroform and precipitated with isopropanol. The resulting pellet was then washed in 75% ethanol, dried, and brought up in diethylpyrocarbonate treated, glass distilled water.\nHIV RNA was transcribed to cDNA using Moloney murine leukemia virus reverse transcriptase (Bethesda Research Laboratories, Gaithersburg, Md.) by the method described in Kawasaki, 1990, “In PCR Protocols: A Guide to Methods and Applications” pp. 21-27, M. A. Innis, D. H. Gelfand, J. J. Sninsky, and T. J. White, eds. Academic Press, Berkeley, Calif. Oligomers used for amplification included SK38, SK39, and SK19 (Kellog et al., 1990, “In PCR Protocols: A Guide to Methods and Applications,” pp. 337-348, M. A. Innis, D. H. Gelfand, J. J. Sninsky, and T. J. White, eds. Academic Press, Berkeley, Calif.). Biotinylation of SK38 and horseradish peroxidase (HRP) labeling of probe SK19 were prepared as described in Levenson et al., 1990, “In PCR Protocols: A Guide to Methods and Applications,” pp. 99-112M. S. Innis, D. H. Gelfand, J. J. Sninsky, and T. J. White, eds. Academic Press, Berkeley, Calif. Amplification of HIV cDNA was carried out as follows: to a 100-μl reaction mixture was added the cDNA, 50 pmol of primers SK38 and SDK39, […] of each dNTP, 10 mM Tris (pH 8.3), 2.5 mM MgCl2, 50 mM KCl, and 2.5 U of recombiTaq DNA polymerase (Perkin-Elmer Cetus, Norwalk, Conn.). The mixture was then overlaid with 50 μl of mineral oil. Tubes were placed in a DNA thermal cycler (Perkin-Elmer Cetus) for 30 cycles of amplification with the following program: 95° C./30 s, 55° C./30s, and 72° C./60 s for denaturation, annealing, and extension, respectively. Negative and positive controls which included both high and low copy number HIV RNA and DNA were added at each step.\nTo detect and quantitate PCR product, 96-well microplates (Maxisorp; Nunc, Naperville, Ill.) were coated with 100 μl of a 0.1 mg/ml solution of avidin (Sigma Chemical Co., St. Louis, Mo.) in 50 mM Na2CO3 (pH 9.6) overnight at room temperature. Wells were then washed twice with PBS. Wells were then filled with 300 μl of a blocking solution containing 5X Denhardt's solution, 1% gelatin (Sigma), […] sheared herring sperm DNA (Promega Biotec, Madison, Wis.) at least overnight at 4° C. […]"}, "[1]": {"test_system": "HIV virus stock from patient PBMC", "experiment": "AZT sensitivity assay (inhibition of P24 production in donor PBMC)", "type": "cell-based", "settings": "Human immunodeficiency virus 1, PBMC", "procedure": "Patient PBMC were cocultured with mitogen-stimulated PBMC from healthy HIV-seronegative donors. Supernatants from these cultures were collected and frozen when the HIV P24 antigen concentration exceeded 10,000 pg/ml. 30-100 TCID50 (50% tissue culture infectious dose) of virus stock was used to infect one million donor PBMC pretreated with different concentrations of AZT (0.0 μM, 0.005 μM, 0.05 μM, 0.5 μM, 5.0 μM). After 7 days, P24 antigen was measured in the cell free supernatant from the cultures with and without zidovudine. The concentration of AZT required to inhibit P24 production by 90% (IC90) as compared to the drug free cultures was determined by nonlinear regression analysis (Chou et al., 1984, Adv. Enzyme Regulation 22:27-55).\nAll comparisons between the patients with mutant and wild type strains were performed using the student's t-test. The calculations on the IC90s determined by the zidovudine sensitive assay were performed using the logl10 transformed IC90 (i.e., geometric means were used rather than arithmetic means)."}},
  "note": "Where “and” joins values, the source holds several entries; their conditions need not be identical. Identical values can stand only once. Like-named read-outs stand apart in the source and are kept apart here.",
  "data": [
    {"molecule": "Cc1cn([C@H]2C[C@H](N=[N+]=[N-])[C@@H](CO)O2)c(=O)[nH]c1=O", "note": "[AZT, zidovudine]", "values": [
      {"measurement": "mean HIV RNA copy number", "setting": "plasma HIV RNA; 14 subjects on AZT with CD4 count <200/mm^3", "value": "295±5 per 200 μl of plasma"},
      {"measurement": "mean HIV RNA copy number", "setting": "plasma HIV RNA; 19 subjects on AZT with CD4 count >200/mm^3, below level of detection", "value": "16±5 per 200 μl of plasma"},
      {"measurement": "mean plasma HIV RNA copy number", "setting": "plasma HIV RNA; 33 subjects currently on AZT (minimum 3 mo), mean±SEM, untreated 690±360", "value": "134±219 per 200 μl of plasma"},
      {"measurement": "subjects with positive HIV RNA signal", "setting": "plasma HIV RNA; AZT-treated subjects with <200 CD4 cells", "value": "9 of 14"},
      {"measurement": "subjects with positive HIV RNA signal", "setting": "plasma HIV RNA; all subjects receiving AZT, untreated 32 of 39", "value": "16 of 33"},
      {"measurement": "Post HIV RNA", "setting": "plasma HIV RNA; in vivo", "value": "2769/437 copy number/200 μl of plasma"},
      {"measurement": "Pre HIV RNA", "setting": "plasma HIV RNA; in vivo", "value": "2769/437 copy number/200 μl of plasma"},
      {"measurement": "subjects with detectable HIV RNA signal", "setting": "plasma HIV RNA; in vivo", "value": "7 of 19"},
      {"measurement": "Post HIV RNA", "setting": "plasma HIV RNA; individual patient, 1 mo after initiation, AZT 500 mg/d", "value": "77 copy number/200 μl of plasma and 57 copy number/200 μl of plasma and 42 copy number/200 μl of plasma and 94/94 copy number/200 μl of plasma and 0/0 copy number/200 μl of plasma (2×) and 65 copy number/200 μl of plasma and 52 copy number/200 μl of plasma and 50 copy number/200 μl of plasma and 45 copy number/200 μl of plasma and 95/95 copy number/200 μl of plasma and 0 copy number/200 μl of plasma (3×) and 72 copy number/200 μl of plasma and 925 copy number/200 μl of plasma and 90 copy number/200 μl of plasma"},
      {"measurement": "Pre HIV RNA", "setting": "plasma HIV RNA; individual patient, before initiation of therapy", "value": "100 copy number/200 μl of plasma and 87 copy number/200 μl of plasma and 40 copy number/200 μl of plasma and 94/94 copy number/200 μl of plasma and 0/0 copy number/200 μl of plasma (2×) and 93 copy number/200 μl of plasma and 105 copy number/200 μl of plasma and 123 copy number/200 μl of plasma and 78 copy number/200 μl of plasma and 95/95 copy number/200 μl of plasma and 301 copy number/200 μl of plasma and 958 copy number/200 μl of plasma and 2014 copy number/200 μl of plasma and 106 copy number/200 μl of plasma and 130 copy number/200 μl of plasma and 550 copy number/200 μl of plasma"},
      {"measurement": "IC90", "setting": "[1]; 168 h, isolates from AZT-naive patients, 7 days, read-out: IC90 (inhibition of P24 production by 90%), range", "value": "2 to 38", "unit": "nM"},
      {"measurement": "IC90", "setting": "[1]; nine patients with a mutation at codon 215, read-out: IC90 range", "value": "30 to 8000", "unit": "nM"},
      {"measurement": "IC90", "setting": "[1]; read-out: IC90 range, eight patients with wild type form at codon 215", "value": "20 to 280", "unit": "nM"},
      {"measurement": "IC90", "setting": "[1]; read-out: geometric mean IC90, eight patients with wild type form at codon 215, post-treatment PBMC", "value": 40, "unit": "nM"},
      {"measurement": "IC90", "setting": "[1]; read-out: geometric mean IC90, nine patients with a mutation at codon 215", "value": 410, "unit": "nM"}
    ]}
  ]
}
